The results in this text go back to patent US11414404B2, “Compounds for the treatment of BRAF-associated diseases and disorders” (Array BioPharma Inc., priority 2019, dated 2022).

For orientation: IC50 means the concentration needed to halve the response being measured. The low end stands for higher potency, the high end for lower potency. In general, efflux ratio refers to a quotient of directional permeabilities that is used to spot active efflux. The term Papp denotes a coefficient for how fast a substance crosses the barrier. Lower therefore signals poor permeation.

In series [1] the target is full-length FLAG-tagged B-Raf(V600E) (Homo sapiens (Human), UniProt P15056, V600E). As to the kind of experiment: BRAF V600E enzyme assay (TR-FRET competitive displacement of fluorescent tracer). In kind it is binding. As to conditions: averaged IC50; 60 min at ambient temperature; 11-point dosing, top dose 10 μM. The text has this:
A competitive displacement assay was configured for B-Raf that monitors the amount of a fluorescently-tagged “tracer” bound to B-Raf via TR-FRET from an anti-tag Eu-labeled antibody also bound to B-Raf.
[formula] • where: • Xmax Average Uninhibited Controls • Xmin Average Background
A 4-parameter logistic model was the fit to the POC data for each compound.
(In general: TR-FRET usually uses a lanthanide donor and a delayed reading to cut background.)

For the next series, the target named is BCRP (Homo sapiens (Human), UniProt Q9UNQ0). As to the kind of experiment: BCRP MDCKII permeability assay: efflux ratio. The note with it: dog.
A further series has as its target P-gp (MDR1) (Homo sapiens (Human), UniProt P08183). As to the kind of experiment: MDR1 LLC-PK1 permeability assay: efflux ratio. The note with it: pig, LLC-PK1.
The nature of series [2]: MDR1 LLC-PK1 and BCRP MDCKII permeability assay: permeability coefficient (Papp).
Description: (§1) Both LLC-PK1 and MDR1 transfected LLC-PK1 cells were cultured and plated according to manufacturer's recommendations with the exception that the passage media contained only 2% fetal bovine serum to extend passage time out to seven days.
BCRP transfected MDCKII cells were cultured and plated according to manufacturer's recommendations. Assay conditions included with and without the BCRP-specific inhibitor, K0143, at a concentration of 0.3 μM to ascertain the contribution of BCRP to the efflux value of the test compound.
(§2) Both positive and negative controls were used to assess functionality of P-gp or BCRP efflux in the assays. […] Final organic concentration in the assay was 1%. All dosing solutions contained 10 μM lucifer yellow to monitor LLC-PK1 or MDCKII cell monolayer integrity.
(§3) For the apical to basolateral determination (A to B), 75 μL of the test article in transport buffer were added to the apical side of the individual transwells and 250 μL of basolateral media, without compound or lucifer yellow, were added to each well. For the basolateral to apical determination (B to A), 250 μL of test article in transport buffer were added to each well and 75 μL transport buffer, without compound or lucifer yellow, were added to each transwell. All tests were performed in triplicate, and each compound was tested for both apical to basolateral and basolateral to apical transport. The plates were incubated for 2 hours on a Lab-Line Instruments Titer Orbital Shaker (VWR, West Chester, Pa.) at 50 rpm and 37° C. with 5% CO2. All culture plates were removed from the incubator and 50 μL of media were removed from the apical and basolateral portion of each well and added to 150 μL of 1 μM labetalol in 2:1 acetonitrile (acetonitrile): H2O, v/v.
(§4) These values were accepted when found to be below 2% for apical to basolateral and 5% basolateral to apical flux across the MDR1-transfected LLC-PK1 or BCRP-transfected MDCKII cell monolayers. The plates were sealed and the contents of each well analyzed by LC-MS/MS. The compound concentrations were determined from the ratio of the peak areas of the compound to the internal standard (labetalol) in comparison to the dosing solution.
(§5) The LC-MS/MS system was comprised of an HTS-PAL autosampler (Leap Technologies, Carrboro, N.C.), an HP1200 HPLC (Agilent, Palo Alto, Calif.), and a MDS Sciex 4000 Q Trap system (Applied Biosystems, Foster City, Calif.). […] The total run time, including re-equilibration, for a single injection was 1.2 minutes. Mass spectrometric detection of the analytes was accomplished using the ion spray positive mode.
where Cd, V, t and C0 are the detected concentration (μM), the volume on the dosing side (mL); the incubation time (s) and the initial dosing concentration (μM), respectively. The calculations for Papp were made for each replicate and then averaged.

Sequence of BCRP (Q9UNQ0 whole entry, species assumed): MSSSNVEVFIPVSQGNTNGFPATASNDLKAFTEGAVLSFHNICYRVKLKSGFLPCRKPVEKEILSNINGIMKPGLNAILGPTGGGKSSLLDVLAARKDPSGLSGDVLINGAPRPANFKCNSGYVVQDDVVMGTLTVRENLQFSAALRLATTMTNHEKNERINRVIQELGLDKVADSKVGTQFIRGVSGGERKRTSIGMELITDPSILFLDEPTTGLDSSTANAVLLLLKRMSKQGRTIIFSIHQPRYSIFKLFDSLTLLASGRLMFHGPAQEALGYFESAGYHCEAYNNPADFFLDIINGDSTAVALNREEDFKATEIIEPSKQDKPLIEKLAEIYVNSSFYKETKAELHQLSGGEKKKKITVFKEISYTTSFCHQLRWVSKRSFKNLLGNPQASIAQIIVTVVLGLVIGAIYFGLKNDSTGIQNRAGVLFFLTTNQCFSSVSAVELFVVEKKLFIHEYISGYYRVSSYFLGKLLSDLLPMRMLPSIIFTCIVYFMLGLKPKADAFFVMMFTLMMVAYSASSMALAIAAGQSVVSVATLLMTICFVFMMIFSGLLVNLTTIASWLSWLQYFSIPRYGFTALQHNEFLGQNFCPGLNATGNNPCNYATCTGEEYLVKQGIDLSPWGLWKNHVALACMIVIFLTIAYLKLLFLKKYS
Sequence of full-length FLAG-tagged B-Raf(V600E) (P15056 whole entry V600E): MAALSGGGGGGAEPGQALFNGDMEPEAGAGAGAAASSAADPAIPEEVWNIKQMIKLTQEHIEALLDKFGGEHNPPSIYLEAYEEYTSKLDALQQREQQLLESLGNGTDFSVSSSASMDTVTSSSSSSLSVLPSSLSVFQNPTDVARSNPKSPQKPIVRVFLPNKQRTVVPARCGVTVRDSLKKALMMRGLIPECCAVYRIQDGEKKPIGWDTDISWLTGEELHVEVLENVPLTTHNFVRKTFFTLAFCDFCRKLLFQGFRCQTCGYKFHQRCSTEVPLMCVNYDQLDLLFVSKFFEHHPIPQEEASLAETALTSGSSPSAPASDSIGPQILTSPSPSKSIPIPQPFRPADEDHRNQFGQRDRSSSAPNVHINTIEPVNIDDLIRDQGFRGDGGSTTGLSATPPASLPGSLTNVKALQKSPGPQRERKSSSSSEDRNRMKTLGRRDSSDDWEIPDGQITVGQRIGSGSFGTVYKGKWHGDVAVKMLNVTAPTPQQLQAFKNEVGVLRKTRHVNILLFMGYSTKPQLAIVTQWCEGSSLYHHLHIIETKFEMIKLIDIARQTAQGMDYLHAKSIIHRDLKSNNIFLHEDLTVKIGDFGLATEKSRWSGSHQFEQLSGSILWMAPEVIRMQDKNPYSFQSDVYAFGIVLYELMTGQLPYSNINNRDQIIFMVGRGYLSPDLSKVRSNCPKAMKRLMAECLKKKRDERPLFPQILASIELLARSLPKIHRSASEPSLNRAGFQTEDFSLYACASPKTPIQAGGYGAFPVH
Sequence of P-gp (MDR1) (P08183 whole entry, species assumed): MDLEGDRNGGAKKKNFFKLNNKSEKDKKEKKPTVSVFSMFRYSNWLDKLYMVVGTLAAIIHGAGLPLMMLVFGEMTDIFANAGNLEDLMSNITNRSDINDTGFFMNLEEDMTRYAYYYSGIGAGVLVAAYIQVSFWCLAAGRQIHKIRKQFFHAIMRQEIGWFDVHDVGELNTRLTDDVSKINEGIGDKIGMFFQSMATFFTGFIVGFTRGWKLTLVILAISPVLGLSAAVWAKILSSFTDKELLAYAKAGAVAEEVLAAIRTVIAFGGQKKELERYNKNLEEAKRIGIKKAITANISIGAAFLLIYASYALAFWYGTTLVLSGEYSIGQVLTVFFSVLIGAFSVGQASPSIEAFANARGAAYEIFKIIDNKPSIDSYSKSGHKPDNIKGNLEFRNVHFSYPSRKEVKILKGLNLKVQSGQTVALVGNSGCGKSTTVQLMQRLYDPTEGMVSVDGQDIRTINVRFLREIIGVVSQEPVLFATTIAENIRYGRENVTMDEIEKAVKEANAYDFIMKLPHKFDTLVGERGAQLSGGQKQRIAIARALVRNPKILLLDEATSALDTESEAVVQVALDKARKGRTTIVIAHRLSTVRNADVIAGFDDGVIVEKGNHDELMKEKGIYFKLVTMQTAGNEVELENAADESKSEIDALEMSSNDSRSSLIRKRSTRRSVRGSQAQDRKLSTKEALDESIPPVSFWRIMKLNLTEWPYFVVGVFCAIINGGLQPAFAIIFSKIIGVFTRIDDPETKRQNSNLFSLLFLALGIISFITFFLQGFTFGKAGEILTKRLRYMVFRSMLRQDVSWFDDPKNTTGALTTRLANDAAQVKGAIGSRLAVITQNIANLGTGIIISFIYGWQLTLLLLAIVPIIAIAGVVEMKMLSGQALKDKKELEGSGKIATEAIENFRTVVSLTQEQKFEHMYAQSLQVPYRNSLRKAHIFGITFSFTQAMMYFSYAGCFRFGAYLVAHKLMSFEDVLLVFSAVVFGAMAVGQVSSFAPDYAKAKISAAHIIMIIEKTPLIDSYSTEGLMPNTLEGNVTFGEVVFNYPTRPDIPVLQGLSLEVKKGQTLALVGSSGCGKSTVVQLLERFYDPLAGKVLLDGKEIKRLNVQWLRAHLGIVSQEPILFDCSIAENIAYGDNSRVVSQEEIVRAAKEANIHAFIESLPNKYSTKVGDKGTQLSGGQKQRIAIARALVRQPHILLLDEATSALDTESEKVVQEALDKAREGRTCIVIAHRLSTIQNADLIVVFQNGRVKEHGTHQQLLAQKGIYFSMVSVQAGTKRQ
Description for P-gp (MDR1): as §1, §2, §3, §4, §5
An efflux ratio is calculated from the mean apical to basolateral (A−B) Papp data and basolateral to apical (B−A) Papp data: Efflux ratio=Papp(B−A)/Papp(A−B)

`CCCS(=O)(=O)Nc1ccc(F)c(Sc2ccc3ncn(C)c(=O)c3c2C)c1Cl` [Example 65, N-(2-chloro-3-((3,5-dimethyl-4-oxo-3,4-dihydroquinazolin-6-yl)thio)-4-fluorophenyl)propane-1-sulfonamide] gave an IC50 in series [1] of 92.4 nM. For the same compound, the efflux ratio at 2 h, 1 µM is 0.9 on BCRP and 1.4 on P-gp (MDR1). This compound also came in with a Papp at 2 h, 1 µM in series [2] of 177 ×10⁻⁶ cm/s.

`CCCS(=O)(=O)Nc1cccc(Oc2ccc3ncn(C)c(=O)c3c2C)c1C#N` [Example 66, N-{2-Cyano-3-[(3,5-dimethyl-4-oxo-3,4-dihydroquinazolin-6-yl)oxy]phenyl}propane-1-sulfonamide] gave an IC50 in series [1] of 4.08 nM. The efflux ratio at 2 h, 1 µM on BCRP was found to be 27.9; on P-gp (MDR1) it was 1.7. This compound also returned a Papp at 2 h, 1 µM in series [2] of 23.1 ×10⁻⁶ cm/s.

With `CCCS(=O)(=O)Nc1cccc(Oc2ccc3ncn(C)c(=O)c3c2C)c1F` [Example 68, N-(3-((3,5-dimethyl-4-oxo-3,4-dihydroquinazolin-6-yl)oxy)-2-fluorophenyl)propane-1-sulfonamide], the IC50 in series [1] is 33 nM. Moreover, the efflux ratio at 2 h, 1 µM on BCRP came out at 1.3; at P-gp (MDR1), 1.2. In series [2], the Papp at 2 h, 1 µM was determined as 28.5 ×10⁻⁶ cm/s.

With `CCCS(=O)(=O)Nc1ccc(F)c(Oc2ccc3ncn(C)c(=O)c3c2C)c1C#N` [Example 69, N-(2-cyano-3-((3,5-dimethyl-4-oxo-3,4-dihydroquinazolin-6-yl)oxy)-4-fluorophenyl)propane-1-sulfonamide], the half-inhibitory concentration (IC50) in series [1] was determined as 0.46 nM. The efflux ratio at 2 h, 1 µM at BCRP was found to be 23.8; at P-gp (MDR1), 4.1. In series [2], this compound had a Papp at 2 h, 1 µM of 24.4 ×10⁻⁶ cm/s.

Compound `CCCS(=O)(=O)Nc1cc(Cl)cc(Oc2ccc3ncn(C)c(=O)c3c2C)c1F` [Example 70, N-(5-chloro-3-((3,5-dimethyl-4-oxo-3,4-dihydroquinazolin-6-yl)oxy)-2-fluorophenyl) propane-1-sulfonamide] showed an IC50 in series [1] of 2.55 nM. The efflux ratio at 2 h, 1 µM on BCRP was found to be 1.17; at P-gp (MDR1), 1.73. The compound further showed a Papp at 2 h, 1 µM in series [2] of 19.1 ×10⁻⁶ cm/s.

In the case of `CCCS(=O)(=O)Nc1ccc(F)c(Oc2ccc3ncn(C)c(=O)c3c2C)c1F` [Example 71, N-(3-((3,5-dimethyl-4-oxo-3,4-dihydroquinazolin-6-yl)oxy)-2,4-difluorophenyl)propane-1-sulfonamide], in series [1], the IC50 stood at 16.4 nM. Further, the efflux ratio at 2 h, 1 µM came out at 0.86 on BCRP and 2.4 on P-gp (MDR1). The same compound registered a Papp at 2 h, 1 µM in series [2] of 25.1 ×10⁻⁶ cm/s.

For `CCCS(=O)(=O)Nc1cc(F)c(F)c(Oc2ccc3ncn(C)c(=O)c3c2C)c1F` [Example 72, N-(3-((3,5-dimethyl-4-oxo-3,4-dihydroquinazolin-6-yl)oxy)-2,4,5-trifluorophenyl)propane-1-sulfonamide], in series [1], the IC50 is 7.7 nM. Also, the efflux ratio at 2 h, 1 µM at BCRP was determined as 1.81; on P-gp (MDR1), 1.86. Besides, in series [2], the Papp at 2 h, 1 µM was determined as 25.6 ×10⁻⁶ cm/s.

Regarding `CCCS(=O)(=O)Nc1cc(F)c(F)c(Oc2ccc3ncn(C)c(=O)c3c2C)c1Cl` [Example 73, N-(2-chloro-3-((3,5-dimethyl-4-oxo-3,4-dihydroquinazolin-6-yl)oxy)-4,5-difluorophenyl)propane-1-sulfonamide], the IC50 in series [1] was determined as 1.55 nM. Besides, the efflux ratio at 2 h, 1 µM at BCRP was found to be 0.3; on P-gp (MDR1), 0.93. Further, the Papp at 2 h, 1 µM in series [2] amounted to 47.5 ×10⁻⁶ cm/s.

The compound `CCCS(=O)(=O)Nc1cc(F)cc(Oc2ccc3ncn(C)c(=O)c3c2C)c1Cl` [Example 74, N-(2-chloro-3-((3,5-dimethyl-4-oxo-3,4-dihydroquinazolin-6-yl)oxy)-5-fluorophenyl)propane-1-sulfonamide] displayed an IC50 in series [1] of 3.55 nM. The figures for the efflux ratio at 2 h, 1 µM at BCRP and at P-gp (MDR1) were 0.92 and 1.13, respectively. For the same compound, the Papp at 2 h, 1 µM in series [2] was determined as 28.4 ×10⁻⁶ cm/s.

In series [1], `CCCS(=O)(=O)Nc1cc(C)cc(Oc2ccc3ncn(C)c(=O)c3c2C)c1F` [Example 75, N-(3-((3,5-dimethyl-4-oxo-3,4-dihydroquinazolin-6-yl)oxy)-2-fluoro-5-methylphenyl)propane-1-sulfonamide] displayed an IC50 of 74.8 nM. Also, the results for the efflux ratio at 2 h, 1 µM on BCRP and on P-gp (MDR1) were 0.73 and 1.57, respectively. The same compound gave a Papp at 2 h, 1 µM in series [2] of 21.5 ×10⁻⁶ cm/s.

Compound `CCCS(=O)(=O)Nc1cc(F)cc(Oc2ccc3ncn(C)c(=O)c3c2C)c1F` [Example 76, N-(3-((3,5-dimethyl-4-oxo-3,4-dihydroquinazolin-6-yl)oxy)-2,5-difluorophenyl)propane-1-sulfonamide] returned an IC50 in series [1] of 5.1 nM. Also, the efflux ratio at 2 h, 1 µM at BCRP was found to be 1.26; on P-gp (MDR1), 1.45. The same compound displayed a Papp at 2 h, 1 µM in series [2] of 31.8 ×10⁻⁶ cm/s.

In turn, `Cc1c(Oc2cc(F)cc(NS(=O)(=O)CCCF)c2F)ccc2ncn(C)c(=O)c12` [Example 77, N-(3-((3,5-dimethyl-4-oxo-3,4-dihydroquinazolin-6-yl)oxy)-2,5-difluorophenyl)-3-fluoropropane-1-sulfonamide] came in with an IC50 in series [1] of 4.25 nM. In addition, the efflux ratio at 2 h, 1 µM at BCRP worked out at 4.24; on P-gp (MDR1), 1.91. Moreover, in series [2], the Papp at 2 h, 1 µM was determined as 25.6 ×10⁻⁶ cm/s.

The compound `CCCS(=O)(=O)Nc1cccc(Oc2ccc3ncn(C)c(=O)c3c2C)c1Cl` [Example 78, N-(2-chloro-3-((3,5-dimethyl-4-oxo-3,4-dihydroquinazolin-6-yl)oxy)phenyl)propane-1-sulfonamide] yielded an IC50 in series [1] of 10.8 nM. For the same compound, the efflux ratio at 2 h, 1 µM on BCRP was determined as 0.96; on P-gp (MDR1), 1.16. The Papp at 2 h, 1 µM in series [2] was 29 ×10⁻⁶ cm/s.

With `Cc1c(Oc2cccc(NS(=O)(=O)CCCF)c2Cl)ccc2ncn(C)c(=O)c12` [Example 79, N-(2-chloro-3-((3,5-dimethyl-4-oxo-3,4-dihydroquinazolin-6-yl)oxy)phenyl)-3-fluoropropane-1-sulfonamide], the IC50 in series [1] was found to be 8.55 nM. For the same compound, the efflux ratio at 2 h, 1 µM on BCRP came out at 1.06; on P-gp (MDR1) it was 2.14. The compound further registered a Papp at 2 h, 1 µM in series [2] of 23.1 ×10⁻⁶ cm/s.

In series [1], `Cc1c(Oc2cccc(NS(=O)(=O)CCCF)c2F)ccc2ncn(C)c(=O)c12` [Example 80, N-(3-((3,5-dimethyl-4-oxo-3,4-dihydroquinazolin-6-yl)oxy)-2-fluorophenyl)-3-fluoropropane-1-sulfonamide] registered an IC50 of 20.8 nM. Besides, the efflux ratio at 2 h, 1 µM at BCRP is 2.03; at P-gp (MDR1), 1.3. Besides, in series [2], the Papp at 2 h, 1 µM was found to be 42.5 ×10⁻⁶ cm/s.
